Source: ChEMBL document CHEMBL2016493, “Design, synthesis, synergistic antimicrobial activity and cytotoxicity of 4-aryl substituted 3,4-dihydropyrimidinones of curcumin” (Bioorg Med Chem Lett, 2012)
The source made the active and inactive calls. The rule behind the calls is not given here.

Key:
QG-56 = assay: Cytotoxicity against human QG56 cells after 48 hrs by MTT assay; type: functional, cell-based
Escherichia coli [1] = assay: Antibacterial activity against Escherichia coli ATCC 35218 at 160 uM/ml after 24 hrs by kirby-bauer method; type: functional; settings: ATCC 35218, 24 h, read-out: IZ
Escherichia coli [2] = assay: Antibacterial activity against Escherichia coli ATCC 35218 at 80 uM/ml after 24 hrs by kirby-bauer method; type: functional; settings: ATCC 35218, 24 h, read-out: IZ
Escherichia coli [3] = assay: Antibacterial activity against Escherichia coli ATCC 35218 at 40 uM/ml after 24 hrs by kirby-bauer method; type: functional
Escherichia coli [4] = assay: Antibacterial activity against Escherichia coli ATCC 35218 at 20 uM/ml after 24 hrs by kirby-bauer method; type: functional
[5] = system: Burkholderia pseudomallei; assay: Antibacterial activity against Burkholderia pseudomallei NTCC 10274 at 160 uM/ml after 24 hrs by kirby-bauer method; type: functional; settings: NTCC 10274, 24 h, read-out: IZ
[6] = system: Burkholderia pseudomallei; assay: Antibacterial activity against Burkholderia pseudomallei NTCC 10274 at 80 uM/ml after 24 hrs by kirby-bauer method; type: functional; settings: NTCC 10274, 24 h, read-out: IZ
[7] = system: Burkholderia pseudomallei; assay: Antibacterial activity against Burkholderia pseudomallei NTCC 10274 at 40 uM/ml after 24 hrs by kirby-bauer method; type: functional; settings: NTCC 10274, 24 h, read-out: IZ
[8] = system: Burkholderia pseudomallei; assay: Antibacterial activity against Burkholderia pseudomallei NTCC 10274 at 20 uM/ml after 24 hrs by kirby-bauer method; type: functional; settings: NTCC 10274, 24 h, read-out: IZ
Pseudomonas aeruginosa [9] = assay: Antibacterial activity against Pseudomonas aeruginosa ATCC 15499 at 160 uM/ml after 24 hrs by kirby-bauer method; type: functional
Pseudomonas aeruginosa [10] = assay: Antibacterial activity against Pseudomonas aeruginosa ATCC 15499 at 80 uM/ml after 24 hrs by kirby-bauer method; type: functional; settings: ATCC 15499, 24 h, read-out: IZ
Pseudomonas aeruginosa [11] = assay: Antibacterial activity against Pseudomonas aeruginosa ATCC 15499 at 40 uM/ml after 24 hrs by kirby-bauer method; type: functional; settings: ATCC 15499, 24 h, read-out: IZ
Pseudomonas aeruginosa [12] = assay: Antibacterial activity against Pseudomonas aeruginosa ATCC 15499 at 20 uM/ml after 24 hrs by kirby-bauer method; type: functional; settings: ATCC 15499, 24 h, read-out: IZ
Salmonella typhimurium [13] = assay: Antibacterial activity against Salmonella typhimurium ATCC 23564 at 160 uM/ml after 24 hrs by kirby-bauer method; type: functional
Staphylococcus aureus = assay: Antibacterial activity against Staphylococcus aureus ATCC 11632 at 160 uM/ml after 24 hrs by kirby-bauer method; type: functional
Aspergillus niger [14] = assay: Antifungal activity against Aspergillus niger MTCC 1108 at 160 uM/ml after 48 hrs by paper disc diffusion method; type: functional
Aspergillus niger [15] = assay: Antifungal activity against Aspergillus niger MTCC 1108 at 80 uM/ml after 48 hrs by paper disc diffusion method; type: functional; settings: MTCC 1108, 48 h, read-out: IZ
Aspergillus niger [16] = assay: Antifungal activity against Aspergillus niger MTCC 1108 at 40 uM/ml after 48 hrs by paper disc diffusion method; type: functional
Aspergillus niger [17] = assay: Antifungal activity against Aspergillus niger MTCC 1108 at 20 uM/ml after 48 hrs by paper disc diffusion method; type: functional
Aspergillus flavus = assay: Antifungal activity against Aspergillus flavus MTCC 1021 at 160 uM/ml after 48 hrs by paper disc diffusion method; type: functional
Curvularia lunata [18] = assay: Antifungal activity against Curvularia lunata MTCC 581 at 160 uM/ml after 48 hrs by paper disc diffusion method; type: functional; settings: MTCC 581, 48 h, read-out: IZ
Curvularia lunata [19] = assay: Antifungal activity against Curvularia lunata MTCC 581 at 80 uM/ml after 48 hrs by paper disc diffusion method; type: functional; settings: MTCC 581, 48 h, read-out: IZ
Curvularia lunata [20] = assay: Antifungal activity against Curvularia lunata MTCC 581 at 40 uM/ml after 48 hrs by paper disc diffusion method; type: functional; settings: MTCC 581, 48 h, read-out: IZ
Curvularia lunata [21] = assay: Antifungal activity against Curvularia lunata MTCC 581 at 20 uM/ml after 48 hrs by paper disc diffusion method; type: functional; settings: MTCC 581, 48 h, read-out: IZ
Trichoderma viride [22] = assay: Antifungal activity against Trichoderma viride MTCC 1107 at 160 uM/ml after 48 hrs by paper disc diffusion method; type: functional; settings: MTCC 1107, 48 h, read-out: IZ
Trichoderma viride [23] = assay: Antifungal activity against Trichoderma viride MTCC 1107 at 80 uM/ml after 48 hrs by paper disc diffusion method; type: functional; settings: MTCC 1107, 48 h, read-out: IZ
Trichoderma viride [24] = assay: Antifungal activity against Trichoderma viride MTCC 1107 at 40 uM/ml after 48 hrs by paper disc diffusion method; type: functional; settings: MTCC 1107, 48 h, read-out: IZ
Trichoderma viride [25] = assay: Antifungal activity against Trichoderma viride MTCC 1107 at 20 uM/ml after 48 hrs by paper disc diffusion method; type: functional; settings: MTCC 1107, 48 h, read-out: IZ
Salmonella typhimurium [26] = assay: Antibacterial activity against Salmonella typhimurium ATCC 23564 at 80 uM/ml after 24 hrs by kirby-bauer method; type: functional, Salmonella enterica subsp. enterica serovar Typhimurium; settings: Salmonella enterica, ATCC 23564, 24 h; read-out: IZ
Salmonella typhimurium [27] = assay: Antibacterial activity against Salmonella typhimurium ATCC 23564 at 40 uM/ml after 24 hrs by kirby-bauer method; type: functional, Salmonella enterica subsp. enterica serovar Typhimurium; settings: Salmonella enterica, ATCC 23564, 24 h; read-out: IZ
Salmonella typhimurium [28] = assay: Antibacterial activity against Salmonella typhimurium ATCC 23564 at 20 uM/ml after 24 hrs by kirby-bauer method; type: functional, Salmonella enterica subsp. enterica serovar Typhimurium; settings: Salmonella enterica, ATCC 23564, 24 h; read-out: IZ

Row | Structure (SMILES) | IC50 (QG-56) | IC50 (HepG2) | IC50 (HCT-116) | zone of inhibition at 160 µM (Escherichia coli [1]) | zone of inhibition at 80 µM (Escherichia coli [2]) | zone of inhibition at 160 µM [5] | zone of inhibition at 80 µM [6] | zone of inhibition at 40 µM [7] | zone of inhibition at 20 µM [8] | inhibition zone (IZ) (Staphylococcus aureus) | inhibition zone (IZ) (Aspergillus flavus) | zone of inhibition at 160 µM (Curvularia lunata [18]) | zone of inhibition at 80 µM (Curvularia lunata [19]) | zone of inhibition at 40 µM (Curvularia lunata [20]) | zone of inhibition at 20 µM (Curvularia lunata [21]) | zone of inhibition at 160 µM (Trichoderma viride [22]) | zone of inhibition at 80 µM (Trichoderma viride [23]) | zone of inhibition (Trichoderma viride [24]) | zone of inhibition at 20 µM (Trichoderma viride [25]) | other results
1 | COc1cccc2c1C(=O)c1c(O)c3c(c(O)c1C2=O)C[C@@](O)(C(=O)CO)C[C@@H]3O[C@H]1C[C@H](N)[C@H](O)[C@H](C)O1 [DOXORUBICIN] | 2.5 uM/ml | 2.5 uM/ml | 5 uM/ml | – | – | – | – | – | – | – | – | – | – | – | – | – | – | – | – | –
2 | COc1ccc(C2NC(=O)NC(/C=C/c3ccc(O)c(OC)c3)=C2C(=O)/C=C/c2ccc(O)c(OC)c2)cc1 (stereo not given) | 50 uM/ml | 50 uM/ml | 100 uM/ml | 12 mm | 9 mm | 23 mm | 19 mm | 15 mm | 11 mm | inactive | inactive | 17 mm | 16 mm | 14 mm | 11 mm | 19 mm | 17 mm | 16 mm | 14 mm | inhibition zone (IZ) (Escherichia coli [3]): inactive; inhibition zone (IZ) (Escherichia coli [4]): inactive; zone of inhibition at 160 µM (Pseudomonas aeruginosa [9]; ATCC 15499, 24 h, read-out: IZ): 23 mm; zone of inhibition at 80 µM (Pseudomonas aeruginosa [10]): 21 mm; zone of inhibition at 40 µM (Pseudomonas aeruginosa [11]): 19 mm; zone of inhibition at 20 µM (Pseudomonas aeruginosa [12]): 13 mm; inhibition zone (IZ) (Salmonella typhimurium [13]; Salmonella enterica subsp. enterica serovar Typhimurium): inactive; zone of inhibition at 160 µM (Aspergillus niger [14]; MTCC 1108, 48 h, read-out: IZ): 11 mm; zone of inhibition at 80 µM (Aspergillus niger [15]): 9 mm; inhibition zone (IZ) (Aspergillus niger [16]): inactive; inhibition zone (IZ) (Aspergillus niger [17]): inactive
3 | COc1cc(/C=C/C(=O)C2=C(/C=C/c3ccc(O)c(OC)c3)NC(=O)NC2c2ccc(O)c(OC)c2)ccc1O (stereo not given) | 50 uM/ml | 25 uM/ml | 100 uM/ml | 19 mm | 17 mm | 16 mm | 16 mm | 14 mm | 10 mm | inactive | inactive | 21 mm | 18 mm | 17 mm | 13 mm | 21 mm | 18 mm | 16 mm | 15 mm | zone of inhibition at 40 µM (Escherichia coli [3]; ATCC 35218, 24 h, read-out: IZ): 14 mm; zone of inhibition at 20 µM (Escherichia coli [4]; ATCC 35218, 24 h, read-out: IZ): 11 mm; inhibition zone (IZ) (Pseudomonas aeruginosa [9]): inactive; zone of inhibition at 160 µM (Salmonella typhimurium [13]; Salmonella enterica, ATCC 23564, 24 h, read-out: IZ): 22 mm; zone of inhibition at 80 µM (Salmonella typhimurium [26]): 19 mm; zone of inhibition at 40 µM (Salmonella typhimurium [27]): 16 mm; zone of inhibition at 20 µM (Salmonella typhimurium [28]): 13 mm; inhibition zone (IZ) (Aspergillus niger [14]): inactive
